Laboratory results reported in ChEMBL document CHEMBL1121774, “Interaction of 5-ethynyl-2'-deoxyuridylate with thymidylate synthetase” (J Med Chem, 1981).

What was measured:
[1] = biological target: T1, Thymidylate synthase (Lactobacillus casei) (UniProt P00469); experiment: Binding of 0.1 mM [14C]5,10-CH2-H4 folate to 2.5 nmol dTMP synthetase from Lactobacillus casei; conditions: Lacticaseibacillus casei
T1 sequence (whole entry): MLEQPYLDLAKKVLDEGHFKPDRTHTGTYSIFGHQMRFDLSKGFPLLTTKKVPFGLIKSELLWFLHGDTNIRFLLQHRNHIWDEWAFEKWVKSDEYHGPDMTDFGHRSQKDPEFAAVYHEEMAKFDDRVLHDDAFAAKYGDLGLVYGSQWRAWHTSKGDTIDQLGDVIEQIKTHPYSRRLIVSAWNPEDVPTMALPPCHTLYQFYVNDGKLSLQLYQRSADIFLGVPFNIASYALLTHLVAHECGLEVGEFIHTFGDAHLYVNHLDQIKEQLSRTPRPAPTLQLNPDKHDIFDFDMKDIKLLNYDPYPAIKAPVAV

[2] = biological target: T2, Thymidylate synthase (Lactobacillus casei, UniProt P00469); experiment: The compound was tested for inhibition of dTMP synthetase from Lactobacillus casei; design: species or system Lacticaseibacillus casei
T2 sequence (P00469 whole entry): T1 sequence (whole entry)

| Structure (SMILES) | dpm bound to protein [1] | Ki [2] [nM] |
| --- | --- | --- |
| C#Cc1cn([C@H]2C[C@H](O)[C@@H](COP(=O)(O)O)O2)c(=O)[nH]c1=O | 1110 | 2700 |
| O=c1[nH]c(=O)n([C@H]2C[C@H](O)[C@@H](COP(=O)(O)O)O2)cc1F | 15500 | – |
